Read-outs that look alike come from different tables or passages of the source.

The term MRT denotes the average time that molecules of a dose stay in the body. The term Tmax denotes the time from dosing to the highest level.

The nature of the data set: Pharmacokinetic assay in Balb/c mice (plasma and brain tissue). In kind it is in vivo. The conditions noted are these: mouse, po, 5 mg/kg p.o., male Balb/c mice; for AUC(0-t): read-out: Area under curve AUC0-t; for AUC(0-inf): read-out: Area under curve AUC0-∞; for half-life: read-out: Half-life t1/2 (converted); for MRT: read-out: Mean residence time MRT; for Tmax: read-out: Peak time tmax; for Cmax: read-out: Plasma concentration Cmax. How it is done: Balb/c mice were used as test animals. The pharmacokinetic behavior in mice (plasma and brain tissue) of the compounds of Examples 2, 3, 5, 6, 9, 13, 59, 60, 61, 63, 71-74, 81, 103, 130, 134, 135, 137, 138, 140, 141, 143, 145 and 146 orally administered at a dose of 5 mg/kg was studied.
Each group had 24 male Balb/c mice. After an overnight fast, Balb/c mice were administered p.o. with the test compound at an administration dose of 5 mg/kg and an administration volume of 10 mL/kg.
0.2 ml of blood was taken from the heart before administration and at 0, 0.5, 1, 2, 4, 6, 8 and 24 hours after administration. The samples were stored in EDTA-K2 tubes, and centrifuged for 6 minutes at 4° C., 6000 rpm to separate the plasma. The plasma samples were stored at −80° C. The mice were sacrificed with CO2, and the whole brain tissue was taken out, weighed, placed in a 2 mL centrifuge tube and stored at −80° C.
1) 160 μL of acetonitrile was added to 40 μL of the plasma sample for precipitation, and then the mixture was centrifuged for 5-20 minutes at 3500×g.
2) 90 μL of acetonitrile containing the internal standard (100 ng/mL) was added to 30 μL of the plasma and brain homogenate samples for precipitation, and then the mixture was centrifuged for 8 minutes at 13000 rpm.
3) 70 μL of the treated supernatant was taken and added to 70 μL of water, and mixed by vortex for 10 minutes. 20 μL of the mixture was taken to analyze the concentration of the test compound by LC/MS/MS. LC/MS/MS analysis instrument: AB Sciex API 4000 Qtrap.
• Liquid chromatography condition: Shimadzu LC-20AD pump. • Chromatographic column: Agilent ZORBAX™ XDB-C18 (50×2.1 mm, 3.5 μm) (note: Aglient ZORBAX™ is a kind of column used in the reverse HPLC); • Mobile phase: Eluent A was 0.10% formic acid in water, and Eluent B was acetonitrile. • Flow rate: 0.4 mL/min • Elution time: 0-4.0 minutes, the eluent is as follows:
The main parameters of pharmacokinetics were calculated by WinNonlin 6.1.

Turning to `C[C@@]1(O)CC[C@H]2[C@H](CC[C@@H]3[C@@H]2CC[C@@]2(C)[C@H]3[C@@H]3C[C@@H]3[C@@H]2C(=O)Cn2cc([N+](=O)[O-])cn2)C1` [Example 103, 1-((2R,4aS,4bR,6aS,7S,7aS,8aR,8bR,8cR,10aR)-2-Hydroxy-2,6a-dimethyloctadecahydrocyclopropa[4,5]cyclopenta[1,2-a]phenanthren-7-yl)-2-(4-nitro-1H-pyrazol-1-yl)ethan-1-one], where the note is “brain tissue”, the AUC(0-t) was 1680 ng·h/mL, the AUC(0-inf) was found to be 1710 ng·h/mL, the half-life was 67.2 min and the MRT turned out to be 2.07 h. Further, for the setting “brain tissue”, the Tmax was 1 h and the Cmax came to 626 ng/mL. Under “plasma”, the AUC(0-t) came to 1030 ng·h/mL, the AUC(0-inf) worked out at 1060 ng·h/mL, the half-life is 71.4 min and the MRT came to 2.12 h. In addition, where the note is “plasma”, the time of peak concentration (Tmax) worked out at 1 h and the Cmax stood at 386 ng/mL.
On to `CC[C@@H]1C[C@H](C(=O)Cn2cc(C#N)cn2)[C@@]2(C)CC[C@H]3[C@@H](CC[C@@H]4C[C@](C)(O)CC[C@@H]43)[C@H]12` [Example 81, 1-(2-((3R,5R,8R,9R,10S,13S,14S,15R,17S)-15-Ethyl-3-hydroxy-3,13-dimethylhexadecahydro-1H-cyclopenta[a]phenanthren-17-yl)-2-oxoethyl)-1H-pyrazole-4-carbonitrile], for which, where the note is “brain tissue”, the AUC(0-t) stood at 1440 ng·h/mL, the AUC(0-inf) was determined as 2230 ng·h/mL, the half-life is 335 min and the mean residence time MRT worked out at 7.97 h. Besides, where the note is “brain tissue”, the time to peak (Tmax) turned out to be 1 h and the Cmax is 296 ng/mL. Under “plasma”, the AUC(0-t) is 4640 ng·h/mL, the AUC(0-inf) is 5920 ng·h/mL, the half-life was 158 min and the mean residence time MRT was found to be 4.96 h. Further, for the setting “plasma”, the Tmax is 1 h and the Cmax turned out to be 1150 ng/mL.

The values above are taken from patent US12139508B2, “Steroid derivative regulators, method for preparing the same, and uses thereof” (JIANGSU HANSOH PHARMACEUTICAL GROUP CO., LTD., priority 2018, dated 2024).
